Data from PMC3017236 (Clinical cancer research : an official journal of the …, 2010).
“Also recorded” adds a separate entry of the source. Read-outs that look alike come from different tables or passages of the source.

Tests used:
[1] = format: in vivo, mouse; details: for Mean AUC0-24,Plasma compared to wild-type mice: mouse, in vivo, po, 50 mg/kg
[2] = tested on: Bcrp1/Abcg2; assay: in vivo; details: mouse, brain ECF (relative to unbound plasma), po, 50 mg/kg
[3] = tested on: P-gp (Mdr1a/b) and Bcrp1/Abcg2; assay: in vivo; details: mouse, brain ECF (relative to unbound plasma), po, 50 mg/kg
[4] = tested on: Mrp4/Abcc4; assay: in vivo; details: mouse, brain ECF (relative to unbound plasma), po, 50 mg/kg
[5] = biological target: T1, OAT2 (Homo sapiens, UniProt Q9Y694); assay: Uptake in HEK-293 cells transfected with OAT2 vs empty vector; format: in vitro ADME; details: HEK-293/OAT2
T1 sequence (Q9Y694 1-548): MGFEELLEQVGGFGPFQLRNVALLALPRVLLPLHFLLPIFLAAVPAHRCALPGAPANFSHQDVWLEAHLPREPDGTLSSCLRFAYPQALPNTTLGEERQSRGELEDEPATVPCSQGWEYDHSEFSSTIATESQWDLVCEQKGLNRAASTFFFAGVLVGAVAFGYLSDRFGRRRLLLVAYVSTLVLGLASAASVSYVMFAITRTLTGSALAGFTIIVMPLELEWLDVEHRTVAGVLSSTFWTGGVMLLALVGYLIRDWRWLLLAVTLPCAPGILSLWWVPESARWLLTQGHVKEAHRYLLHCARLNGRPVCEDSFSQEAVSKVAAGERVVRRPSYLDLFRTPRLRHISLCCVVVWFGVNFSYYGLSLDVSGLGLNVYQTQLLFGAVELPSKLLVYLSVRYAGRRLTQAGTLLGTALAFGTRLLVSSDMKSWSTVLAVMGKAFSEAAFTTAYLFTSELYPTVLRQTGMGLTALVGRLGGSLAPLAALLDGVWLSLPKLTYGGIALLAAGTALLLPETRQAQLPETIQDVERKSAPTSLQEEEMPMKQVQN

[6] = biological target: T2, human BCRP (Homo sapiens, UniProt Q9UNQ0); assay: Intracellular accumulation in Saos2-BCRP cells vs Saos2-pcDNA3.1; details: for Effect of elacridar on intracellular accumulation: Saos2-BCRP cells, pre-incubation 30 minutes with elacridar (4 μM); for Intracellular accumulation vs control cells: Saos2-BCRP vs Saos2-pcDNA3.1, 0.5 μg/mL, 37°C
T2 sequence (Q9UNQ0 1-655): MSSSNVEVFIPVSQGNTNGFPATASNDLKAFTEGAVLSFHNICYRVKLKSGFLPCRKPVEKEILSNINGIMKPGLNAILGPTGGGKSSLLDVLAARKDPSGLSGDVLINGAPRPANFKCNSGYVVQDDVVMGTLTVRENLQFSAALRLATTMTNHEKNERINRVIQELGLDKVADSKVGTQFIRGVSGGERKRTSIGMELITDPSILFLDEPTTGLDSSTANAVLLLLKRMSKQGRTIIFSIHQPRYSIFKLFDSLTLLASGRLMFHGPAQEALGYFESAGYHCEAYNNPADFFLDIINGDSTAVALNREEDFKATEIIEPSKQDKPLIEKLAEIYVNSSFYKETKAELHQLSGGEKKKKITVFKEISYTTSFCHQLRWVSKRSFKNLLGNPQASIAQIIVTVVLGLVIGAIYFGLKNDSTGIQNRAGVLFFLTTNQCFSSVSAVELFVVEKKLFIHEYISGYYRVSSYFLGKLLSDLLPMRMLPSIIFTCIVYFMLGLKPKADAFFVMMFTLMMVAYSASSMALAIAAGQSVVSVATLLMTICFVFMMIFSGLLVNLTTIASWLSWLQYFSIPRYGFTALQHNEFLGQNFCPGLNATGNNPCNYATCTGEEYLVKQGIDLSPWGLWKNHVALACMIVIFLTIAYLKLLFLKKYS

[7] = in vitro; details: mouse, plasma
[8] = biological target: T3, OCT1 (Homo sapiens, UniProt O15245); assay: Uptake in HEK-293 cells transfected with OCT1 vs empty vector; format: in vitro ADME; details: HEK-293/OCT1
T3 sequence (O15245 1-554): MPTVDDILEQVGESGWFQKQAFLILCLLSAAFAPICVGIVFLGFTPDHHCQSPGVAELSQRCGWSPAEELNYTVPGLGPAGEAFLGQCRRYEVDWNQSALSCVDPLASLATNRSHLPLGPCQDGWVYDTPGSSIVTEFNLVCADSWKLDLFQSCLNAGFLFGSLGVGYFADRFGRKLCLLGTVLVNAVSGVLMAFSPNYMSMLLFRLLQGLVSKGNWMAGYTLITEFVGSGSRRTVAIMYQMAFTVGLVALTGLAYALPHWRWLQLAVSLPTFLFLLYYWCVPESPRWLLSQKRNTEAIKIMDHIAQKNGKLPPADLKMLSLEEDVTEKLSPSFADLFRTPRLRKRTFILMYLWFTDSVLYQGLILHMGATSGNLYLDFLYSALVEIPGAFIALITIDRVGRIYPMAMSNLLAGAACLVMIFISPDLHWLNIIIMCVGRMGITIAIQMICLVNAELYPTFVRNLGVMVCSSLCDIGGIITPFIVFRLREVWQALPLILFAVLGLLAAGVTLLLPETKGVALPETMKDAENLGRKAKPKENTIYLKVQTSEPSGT

[9] = tested on: Mrp4/Abcc4; assay: Brain microdialysis; details: Abcc4−/− mice, 50 mg/kg oral erlotinib, mean ± SD
[10] = tested on: P-gp (Mdr1a/b); details: mouse, in vivo, po, 50 mg/kg
[11] = mouse, in vivo
[12] = tested on: Bcrp1/Abcg2; details: mouse, in vivo
[13] = tested on: P-gp (Mdr1a/b) and Bcrp1/Abcg2; details: mouse, in vivo
[14] = biological target: human ABCB1 (P-gp/MDR1) (Homo sapiens, UniProt P08183); assay: Intracellular accumulation in LLCPK1-MDR1 cells vs LLCPK1 cells
human ABCB1 (P-gp/MDR1), sequence (P08183 whole entry): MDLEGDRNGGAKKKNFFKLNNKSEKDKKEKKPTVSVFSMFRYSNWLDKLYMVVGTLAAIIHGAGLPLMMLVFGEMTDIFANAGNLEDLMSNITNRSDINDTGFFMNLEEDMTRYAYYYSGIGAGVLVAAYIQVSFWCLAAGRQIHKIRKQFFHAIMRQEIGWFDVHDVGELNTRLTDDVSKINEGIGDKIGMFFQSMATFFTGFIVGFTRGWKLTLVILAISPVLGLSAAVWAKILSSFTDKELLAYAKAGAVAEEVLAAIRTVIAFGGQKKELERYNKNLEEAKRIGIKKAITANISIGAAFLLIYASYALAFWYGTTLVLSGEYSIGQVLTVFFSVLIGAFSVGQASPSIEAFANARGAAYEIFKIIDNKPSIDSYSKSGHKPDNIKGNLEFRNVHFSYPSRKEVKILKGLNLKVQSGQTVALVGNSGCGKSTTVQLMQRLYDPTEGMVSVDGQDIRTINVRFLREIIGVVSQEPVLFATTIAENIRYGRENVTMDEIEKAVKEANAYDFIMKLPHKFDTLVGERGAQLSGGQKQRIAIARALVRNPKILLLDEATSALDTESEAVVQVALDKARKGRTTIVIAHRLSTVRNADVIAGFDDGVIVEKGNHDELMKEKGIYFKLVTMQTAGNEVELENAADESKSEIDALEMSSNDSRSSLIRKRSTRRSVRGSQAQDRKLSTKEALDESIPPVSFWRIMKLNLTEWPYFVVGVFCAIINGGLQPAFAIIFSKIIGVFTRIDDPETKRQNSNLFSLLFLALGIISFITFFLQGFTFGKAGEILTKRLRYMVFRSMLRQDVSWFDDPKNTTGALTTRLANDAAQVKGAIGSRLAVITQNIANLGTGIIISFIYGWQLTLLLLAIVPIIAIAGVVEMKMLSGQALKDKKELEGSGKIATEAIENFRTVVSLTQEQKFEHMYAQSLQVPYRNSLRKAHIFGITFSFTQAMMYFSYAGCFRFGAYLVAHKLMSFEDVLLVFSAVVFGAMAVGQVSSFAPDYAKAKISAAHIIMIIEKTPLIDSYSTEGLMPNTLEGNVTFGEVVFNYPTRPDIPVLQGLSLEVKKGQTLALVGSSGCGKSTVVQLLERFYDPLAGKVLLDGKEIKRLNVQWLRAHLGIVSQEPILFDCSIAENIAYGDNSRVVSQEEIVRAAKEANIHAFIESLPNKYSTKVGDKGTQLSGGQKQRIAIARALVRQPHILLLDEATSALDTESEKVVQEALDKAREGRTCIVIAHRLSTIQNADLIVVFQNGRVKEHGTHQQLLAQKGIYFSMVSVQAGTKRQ

C#Cc1cccc(Nc2ncnc3cc(OCCOC)c(OCCOC)cc23)c1 [erlotinib, Erlotinib]
Mean AUC0-24,Plasma compared to wild-type mice ([1]; Abcc4−/−): 0.9 fold | Mean AUC0-24,Plasma compared to wild-type mice ([1]; Abcg2−/−): 1.25 fold | Mean AUC0-24,Plasma compared to wild-type mice ([1]; Mdr1a/b−/−): 0.9 fold | Mean AUC0-24,Plasma compared to wild-type mice ([1]; Mdr1a/b−/−Abcg2−/−): 1.3 fold | Tolerability of single dose ([1]; single oral dose 50 mg/kg, all strains): tolerated well | Kp [2]: 1.4 ± 0.9 | Kp [3]: 0.7 ± 0.26 | Kp [4]: 0.32 ± 0.24 | Transport by transporter [5]: not found to transport | Effect of elacridar on intracellular accumulation [6]: significantly increased | Intracellular accumulation vs control cells [6]: significantly lower; also recorded: significantly reduced | fraction unbound at 10 h [7]: 0.048 | Transport by transporter [8]: not found to transport

C#Cc1cccc(Nc2ncnc3cc(OCCOC)c(OCCO)cc23)c1 [OSI-420]
PBrain (brain ECF-to-unbound plasma AUC0-24 ratio) [9]: 0.08 ± 0.06 | PBrain (brain ECF-to-unbound plasma AUC0-24 ratio) [10]: 0.04±0.02 | Penetration of unbound drug from plasma across the BBB [11]: 7% | PBrain (brain ECF-to-unbound plasma AUC0-24 ratio) ([11]; po, 50 mg/kg): 0.07±0.02 | Effect of elacridar on intracellular accumulation [6]: significantly increased | Intracellular accumulation vs control cells [6]: significantly lower; also recorded: significantly reduced | Brain penetration relative to wild-type mice [12]: 7 fold | Brain penetration relative to wild-type mice [13]: 4 fold | Effect of elacridar on intracellular accumulation ([14]; LLCPK1-MDR1 cells, pre-incubation 30 minutes with elacridar (4 μM)): significantly increased | Intracellular accumulation vs control cells ([14]; LLCPK1-MDR1 vs LLCPK1, 0.5 μg/mL, 37°C): lower accumulation; also recorded: significantly reduced
